The results in this text go back to patent US20080181866A1, “Amido Anti-viral Compounds” (Genelabs Technologies, Inc., priority 2006, published 2008).

Broadly, the inhibition is how much of the control response was suppressed. Higher therefore signals a strong effect.

This experiment concerns HCV replication. Kind of experiment: HCV replicon assay (luciferase) in ET (Huh-lucubineo-ET) cell line. Format: cell-based. Conditions: Hepatitis C virus, tested at 5 μM; ET replicon cells; luciferase activity measured 48-72 hours later; relative to no compound control. As for the experimental part:
A cell line, ET (Huh-lucubineo-ET) was used for screening of compounds of the present invention for inhibiting HCV replication. The ET cell line was stably transfected with RNA transcripts harboring a I389luc-ubi-neo/NS3-3′/ET; replicon with firefly luciferase-ubiquitin-neomycin phosphotransferase fusion protein and EMCV-IRES driven NS3-5B polyprotein containing the cell culture adaptive mutations (E1202G; T12801; K1846T) (Krieger at al, 2001 and unpublished). The ET cells were grown in DMEM (Dulbeco's Modified Eagle's Medium), supplemented with 10% fetal calf serum, 2 mM Glutamine, Penicillin (100 IU/mL)/Streptomycin (100 μg/mL), 1× nonessential amino acids, and 250 μg/mL G418 (“Geneticin”). They were all available through Life Technologies (Bethesda, Md.). The cells were plated at 0.5-1.0×10^4 cells/well in the 96 well plates and incubated for 24 hrs before adding testing compounds. Then the compounds were added to the cells to achieve a final concentration of 0.1 nM to 50 μM and a final DMSO concentration of 0.5%. Luciferase activity were measured 48-72 hours later by adding a lysis buffer and the substrate (Catalog number Glo-lysis buffer E2661 and Bright-Glo luciferase system E2620 Promega, Madison, Wis.). Cells should not be too confluent during the assay. Percent inhibition of replication was plotted relative to no compound control. Under the same condition, cytotoxicity of the compounds was determined using cell proliferation reagent, WST-1 (Roche, Germany). The compounds showing antiviral activities, but no significant cytotoxicities were chosen to determine EC50 and TC50. For these determinations, a 10 point 2-fold serial dilution for each compound was used, which spans a concentration range of 1000 fold. EC50 and similarly TC50 values were calculated by fitting % inhibition at each concentration to the following equation:
% inhibition=100%/[(IC50/[I])^b+1]
where b is Hill's coefficient.
In some preferred embodiments compounds of Formula I will have a % inhibition of at least 20% when tested at 5 μM. In other embodiments the compounds of Formula I will have a % inhibition of at least 50% when tested at 5 μM.
Molecule `O=C(NC1CC1)c1ccc(-c2csc(NC(=O)[C@@H]3CSC(c4ccnc5ccccc45)N3C(=O)OCc3ccccc3)n2)cc1` (mixture of isomers) [Compound 7007, (R)-4-[4-(4-Cyclopropylcarbamoyl-phenyl)-thiazol-2-ylcarbamoyl]-2-quinolin-4-yl-thiazolidine-3-carboxylic acid benzyl ester] returned an inhibition at 5 µM of 100%. The same measure for `O=C(Cc1ccc(NC(=O)[C@@H]2CSC(c3ccncc3)N2C(=O)OCc2ccccc2)cc1)NC1CC1` (some centres unmarked) [Compound 7068, 4-(4-Cyclopropylcarbamoylmethyl-phenylcarbamoyl)-2-pyridin-4-yl-thiazolidine-3-carboxylic acid benzyl ester]: 6%; for `O=C(O)CCCCC1SC[C@@H](C(=O)Nc2nc(-c3ccc(C(=O)NC4CC4)cc3)cs2)N1C(=O)OCc1ccccc1` (stereo in doubt) [Compound 7088, 2-(4-Carboxy-butyl)-4-[4-(4-cyclopropylcarbamoyl-phenyl)-thiazol-2-ylcarbamoyl]-thiazolidine-3-carboxylic acid benzyl ester]: 99.8%; for `O=C(Nc1ccc(CNS(=O)(=O)c2ccccc2)cc1)[C@@H]1CSC(c2ccncc2)N1C(=O)OCc1ccccc1` (some centres unmarked) [Compound 7111, 4-[4-(Benzenesulfonylamino-methyl)-phenylcarbamoyl]-2-pyridin-4-yl-thiazolidine-3-carboxylic acid benzyl ester]: 43%. `Cn1ccnc1C1SC[C@@H](C(=O)Nc2nc(-c3ccc(C(=O)NC4CC4)cc3)cs2)N1C(=O)OCc1ccccc1` (mixture of isomers) [Compound 7053, (R)-4-[4-(4-Cyclopropylcarbamoyl-phenyl)-thiazol-2-ylcarbamoyl]-2-(1-methyl-1H-imidazol-2-yl)-thiazolidine-3-carboxylic acid benzyl ester] showed an inhibition at 5 µM of 99.6%. Regarding `COc1ccc(C2SC[C@@H](C(=O)Nc3nc(-c4ccc(C(=O)NC5CC5)cc4)cs3)N2C(=O)OCc2ccccc2)cc1` (mixture of isomers) [Compound 7030, (R)-4-[4-(4-Cyclopropylcarbamoyl-phenyl)-thiazol-2-ylcarbamoyl]-2-(4-methoxy-phenyl)-thiazolidine-3-carboxylic acid benzyl ester], the inhibition at 5 µM is 99.9%. `CC(=O)c1ccc(C2SC[C@@H](C(=O)Nc3nc(-c4ccc(C(=O)NC5CC5)cc4)cs3)N2C(=O)OCc2ccccc2)cc1` (mixture of isomers) [Compound 7109, 2-(4-Acetyl-phenyl)-4-[4-(4-cyclopropylcarbamoyl-phenyl)-thiazol-2-ylcarbamoyl]-thiazolidine-3-carboxylic acid benzyl ester] showed an inhibition at 5 µM of 100%. The figure for `O=C(O)c1cccc(C2SC[C@@H](C(=O)Nc3nc(-c4ccc(C(=O)NC5CC5)cc4)cs3)N2C(=O)OCc2ccccc2)c1` (mixture of isomers) [Compound 7034, (R)-2-(3-Carboxy-phenyl)-4-[4-(4-cyclopropylcarbamoyl-phenyl)-thiazol-2-ylcarbamoyl]-thiazolidine-3-carboxylic acid benzyl ester] is 98.7%; for `COCCNC(=O)c1ccc(NC(=O)[C@@H]2CSC(c3ccncc3)N2C(=O)OCc2ccccc2)cc1` (stereo in doubt) [Compound 7135, 4-[4-(2-Methoxy-ethylcarbamoyl)-phenylcarbamoyl]-2-pyridin-4-yl-thiazolidine-3-carboxylic acid benzyl ester] it is 22.1%. The same measure for `O=C(NC1CC1)c1ccc(-c2csc(NC(=O)[C@@H]3CSC(c4ccccc4)N3C(=O)OCc3ccccc3)n2)cc1` (stereo partly drawn) [Compound 7044, (R)-4-[4-(4-Cyclopropylcarbamoyl-phenyl)-thiazol-2-ylcarbamoyl]-2-phenyl-thiazolidine-3-carboxylic acid benzyl ester]: 98%; for `O=C(Nc1ccccc1)c1ccc(NC(=O)[C@@H]2CSC(c3ccncc3)N2C(=O)OCc2ccccc2)cc1` (some centres unmarked) [Compound 7076, 4-(4-Phenylcarbamoyl-phenylcarbamoyl)-2-pyridin-4-yl-thiazolidine-3-carboxylic acid benzyl ester]: 3.9%; for `COC(=O)c1ccc(C2SC[C@@H](C(=O)Nc3nc(-c4ccc(C(=O)NC5CC5)cc4)cs3)N2C(=O)OCc2ccccc2)cc1` (mixture of isomers) [Compound 7051, (R)-4-[4-(4-Cyclopropylcarbamoyl-phenyl)-thiazol-2-ylcarbamoyl]-2-(4-methoxycarbonyl-phenyl)-thiazolidine-3-carboxylic acid benzyl ester]: 99.4%. The figure for `O=C(NC1CC1)c1ccc(-c2csc(NC(=O)[C@@H]3CC[C@H](c4ccccc4)N3C(=O)OCc3ccccc3)n2)cc1` [Compound 7052, (2S,5R)-2-[4-(4-Cyclopropylcarbamoyl-phenyl)-thiazol-2-ylcarbamoyl]-5-phenyl-pyrrolidine-1-carboxylic acid benzyl ester] is 98.9%; for `O=C(NC1CC1)c1ccc(-c2csc(NC(=O)[C@@H]3CSC(c4ccc(CN5CCOCC5)cc4)N3C(=O)OCc3ccccc3)n2)cc1` (some centres unmarked) [Compound 7087, 4-[4-(4-Cyclopropylcarbamoyl-phenyl)-thiazol-2-ylcarbamoyl]-2-(4-morpholin-4-ylmethyl-phenyl)-thiazolidine-3-carboxylic acid benzyl ester] it is 99.6%.

Molecule `C=C1C[C@@H](C(=O)Nc2nc(-c3ccc(C(=O)NC4CC4)cc3)cs2)N(C(=O)OC(C)(C)C)C1` [Compound 7040, (S)-2-[4-(4-Cyclopropylcarbamoyl-phenyl)-thiazol-2-ylcarbamoyl]-4-methylene-pyrrolidine-1-carboxylic acid tert-butyl ester] had an inhibition at 5 µM of 89.9%. As to `CC(C)(C)OC(=O)N1c2ccccc2C[C@H]1C(=O)Nc1nc(-c2ccc(C(=O)NC3CC3)cc2)cs1` [Compound 7020, (S)-2-[4-(4-Cyclopropylcarbamoyl-phenyl)-thiazol-2-ylcarbamoyl]-2,3-dihydro-indole-1-carboxylic acid tert-butyl ester], the inhibition at 5 µM turned out to be 99.5%. Molecule `CC(C)(C)NC(=O)c1ccc(-c2csc(NC(=O)[C@@H]3CSC(c4ccncc4)N3C(=O)OCc3ccccc3)n2)cc1` (some centres unmarked) [Compound 7041, 4-[4-(4-tert-Butyl-carbamoyl-phenyl)-thiazol-2-ylcarbamoyl]-2-pyridin-4-yl-thiazolidine-3-carboxylic acid benzyl ester] registered an inhibition at 5 µM of 100%. Regarding `COC(=O)c1cccc(C2SC[C@@H](C(=O)Nc3nc(-c4ccc(C(=O)NC5CC5)cc4)cs3)N2C(=O)OCc2ccccc2)c1` (mixture of isomers) [Compound 7057, (R)-4-[4-(4-Cyclopropylcarbamoyl-phenyl)-thiazol-2-ylcarbamoyl]-2-(3-methoxycarbonyl-phenyl)-thiazolidine-3-carboxylic acid benzyl ester], the inhibition at 5 µM was 100%. The same measure for `O=C(NC1CC1)c1ccc(-c2csc(NC(=O)[C@@H]3CSC(Cc4ccccc4)N3C(=O)OCc3ccccc3)n2)cc1` (some centres unmarked) [Compound 7101, 2-Benzyl-4-[4-(4-cyclopropylcarbamoyl-phenyl)-thiazol-2-ylcarbamoyl]-thiazolidine-3-carboxylic acid benzyl ester]: 98.4%. With `CC(C)(C)C(=O)N1C(C2CCOCC2)SC[C@H]1C(=O)Nc1nc(-c2ccc(C(=O)NC3CC3)cc2)cs1` (some centres unmarked) [Compound 7070, 3-(2,2-Dimethyl-propionyl)-2-(tetrahydro-pyran-4-yl)-thiazolidine-4-carboxylic acid [4-(4-cyclopropylcarbamoyl-phenyl)-thiazol-2-yl]-amide], the inhibition at 5 µM turned out to be 96.1%.

`O=C(NCCN1CCOCC1)c1ccc(-c2csc(NC(=O)[C@@H]3COC4(CCOCC4)N3C(=O)OCc3ccccc3)n2)cc1` [Compound 7141, 3-{4-[4-(2-Morpholin-4-yl-ethylcarbamoyl)-phenyl]-thiazol-2-ylcarbamoyl}-1,8-dioxa-4-aza-spiro[4.5]decane-4-carboxylic acid benzyl ester] displayed an inhibition at 5 µM of 100%.

As to `O=C(NC1CC1)c1ccc(-c2csc(NC(=O)[C@@H]3CSC(c4cnco4)N3C(=O)OCc3ccccc3)n2)cc1` (mixture of isomers) [Compound 7036, (R)-4-[4-(4-Cyclopropylcarbamoyl-phenyl)-thiazol-2-ylcarbamoyl]-2-oxazol-5-yl-thiazolidine-3-carboxylic acid benzyl ester], the inhibition at 5 µM came out at 99.8%. The same measure for `O=C(O)CCC1SC[C@@H](C(=O)Nc2nc(-c3ccc(C(=O)NC4CC4)cc3)cs2)N1C(=O)OCc1ccccc1` (mixture of isomers) [Compound 7065, 2-(2-Carboxy-ethyl)-4-[4-(4-cyclopropylcarbamoyl-phenyl)-thiazol-2-ylcarbamoyl]-thiazolidine-3-carboxylic acid benzyl ester]: 92%.
